Where two headings read alike, the source gives them in different places.
Experiments:
L. major [1] = system: L. major; parameters: method as in ChEMBL; details: ref ChEMBL, cited from earlier work
L. major [2] = assay: ChEMBL dataset of pIC50 values against L. major used for the RF model (Table S1); format: cell-based, Leishmania major; also: call rule not given here
[3] = ChemBL structures with pIC50 values used for Random forest model construction, L. major
[4] = Active/Inactive class assigned to the ChEMBL pIC50 value for Random forest model construction, ref ChEMBL
[5] = ChemBL structures with pIC50 values used for Random forest model construction (Table S1)
[6] = Active/Inactive class assigned to ChemBL structures for Random forest model construction (Table S1)

O=[N+]([O-])c1ccc(-c2nnc(N3CCNCC3)s2)s1 [CHEMBL193685]
pIC50 Value (L. major [1]; [3]): 3.82 | Outcome (L. major [2]; [4]): Inactive

CCCC/C=C/C=C/c1nc2cccc(OC)c2n2cccc12 [CHEMBL3260217]
pIC50 Value (L. major [1]; [3]): 5.24 | Outcome (L. major [2]; [4]): Active

O=[N+]([O-])c1ccc(-c2nnc(NCc3cn(Cc4ccc(Cl)c(Cl)c4)nn3)s2)o1 [CHEMBL1951535]
pIC50 Value (L. major [1]; [3]): 3.88 | Outcome (L. major [2]; [4]): Inactive

Cn1cc(C2N(c3ccc(Cl)cc3)C(=O)C2(c2ccccc2)c2ccccc2)c2ccccc21 (stereo not drawn) [CHEMBL2071563]
pIC50 Value (L. major [1]; [5]): 5.78 | Outcome (L. major [2]; [6]): Active

C=CCCC/C=C\C/C=C\CCCCCCCc1cc(O)cc(O)c1 [CHEMBL496449]
pIC50 Value (L. major [1]; [3]): 4.98 | Outcome (L. major [2]; [4]): Inactive

c1ccc(-c2nc3c(NCCN4CCOCC4)nccn3c2-c2ccncc2)cc1 [CHEMBL3634365]
pIC50 Value (L. major [1]; [3]): 4.63 | Outcome (L. major [2]; [4]): Inactive

CCN1CSC(=S)N(C(C)c2ccccc2)C1 (stereo not drawn) [CHEMBL4286479]
pIC50 Value (L. major [1]; [3]): 4.34 | Outcome (L. major [2]; [4]): Inactive

C/C=C/C1=C(OC)C(=O)C(OC)=C(OC)C1=O [CHEMBL454996]
pIC50 Value (L. major [1]; [3]): 4.14 | Outcome (L. major [2]; [4]): Inactive

CCc1nnc(N2C(=O)C3C4C=CC(C4)C3C2=O)s1 (stereo not drawn) [CHEMBL1255760]
pIC50 Value (L. major [1]; [3]): 4.00 | Outcome (L. major [2]; [4]): Inactive

O=[N+]([O-])c1ccc(-c2nnc(N3CCCCC3)s2)s1 [CHEMBL191691]
pIC50 Value (L. major [1]; [3]): 3.82 | Outcome (L. major [2]; [4]): Inactive

CCCCCCCCCC(=O)OCCc1ccc(O)cc1 [CHEMBL3960630]
pIC50 Value (L. major [1]; [3]): 4.19 | Outcome (L. major [2]; [4]): Inactive

O=[N+]([O-])c1ccc(-c2nnc(N3CCOCC3)s2)o1 [CHEMBL365770]
pIC50 Value (L. major [1]; [3]): 5.28 | Outcome (L. major [2]; [4]): Active

O=[N+]([O-])c1ccc(-c2nc3ccc([N+](=O)[O-])cc3[nH]2)cc1 [CHEMBL1483847]
pIC50 Value (L. major [1]; [5]): 5.58 | Outcome (L. major [2]; [6]): Active

C[C@H]1COC2=C1C(=O)C(=O)c1c2ccc2c1[C@H](O)CCC2(C)C [CHEMBL485279]
pIC50 Value (L. major [1]; [3]): 4.33 | Outcome (L. major [2]; [4]): Inactive

COc1ccc(OC)c(/C=C/C(=O)C2=Cc3cc(Cl)ccc3OC2)c1 [CHEMBL1095286]
pIC50 Value (L. major [1]; [5]): 5.52 | Outcome (L. major [2]; [6]): Active

COc1cc(C)c(-c2ccc(O)c3c2C[C@@H](C)N[C@@H]3C)c2cccc(O)c12 [CHEMBL375542]
pIC50 Value (L. major [1]; [3]): 4.44 | Outcome (L. major [2]; [4]): Inactive

Fc1ccccc1-c1nc2ccccn2c1-c1cccnc1 [CHEMBL2151877]
pIC50 Value (L. major [1]; [3]): 4.46 | Outcome (L. major [2]; [4]): Inactive

COc1ccc(/C=N/NC(=O)c2ccc(-c3nnc(-c4ccccc4OC)o3)cc2)cc1 [CHEMBL4099467]
pIC50 Value (L. major [1]; [3]): 4.13 | Outcome (L. major [2]; [4]): Inactive

CCCCCCN(C)c1ccc(Nc2c3ccc(N(C)C)cc3nc3cc(N(C)C)ccc23)cc1 [CHEMBL88461]
pIC50 Value (L. major [1]; [5]): 7.15 | Outcome (L. major [2]; [6]): Active

Fc1ccc(-c2nc3c(NCCN4CCOCC4)nccn3c2I)cc1 [CHEMBL3634362]
pIC50 Value (L. major [1]; [5]): 5.55 | Outcome (L. major [2]; [6]): Active

CCN(CC)NC(=O)c1ccc(OCc2ccccc2)cc1 [CHEMBL3613383]
pIC50 Value (L. major [1]; [3]): 4.68 | Outcome (L. major [2]; [4]): Inactive

O=C(/C=C/c1ccc(-n2ccnc2)cc1)c1cc(Cl)ccc1Cl [CHEMBL570739]
pIC50 Value (L. major [1]; [5]): 5.54 | Outcome (L. major [2]; [6]): Active

O=C(/C=C/c1ccc(-n2ccnc2)cc1)c1ccc(Cl)c(Cl)c1Cl [CHEMBL571575]
pIC50 Value (L. major [1]; [5]): 5.78 | Outcome (L. major [2]; [6]): Active

CC(c1ccccc1)N1CN(CCO)CSC1=S (stereo not drawn) [CHEMBL4279631]
pIC50 Value (L. major [1]; [3]): 4.49 | Outcome (L. major [2]; [4]): Inactive

CC1=C(C(=O)Nc2ccc(C(=O)/C=C/c3ccc(O)cc3)cc2)C(c2ccc(C)cc2)NC(=S)N1 (stereo not drawn) [CHEMBL3786661]
pIC50 Value (L. major [1]; [5]): 5.96 | Outcome (L. major [2]; [6]): Active

COc1ccc([C@@H]2COc3c(ccc4c3C=CC(C)(C)O4)C2)c(OC)c1O [CHEMBL498725]
pIC50 Value (L. major [1]; [3]): 4.63 | Outcome (L. major [2]; [4]): Inactive

CCCCN1CSC(=S)N(C(C)c2ccccc2)C1 (stereo not drawn) [CHEMBL4287541]
pIC50 Value (L. major [1]; [3]): 4.67 | Outcome (L. major [2]; [4]): Inactive

CC1=C(C(=O)Nc2ccc(C(=O)/C=C/c3cccc([N+](=O)[O-])c3)cc2)C(c2cccc(O)c2)NC(=S)N1 (stereo not drawn) [CHEMBL3786907]
pIC50 Value (L. major [1]; [5]): 5.95 | Outcome (L. major [2]; [6]): Active

C#CCOc1ccc(C(=O)/C=C/c2ccc(F)cc2)c(OCC#C)c1 [CHEMBL4162285]
pIC50 Value (L. major [1]; [3]): 5.00 | Outcome (L. major [2]; [4]): Active

COc1ccccc1Nc1ncnc2ccc([N+](=O)[O-])cc12 [CHEMBL3758369]
pIC50 Value (L. major [1]; [5]): 5.36 | Outcome (L. major [2]; [6]): Active

CCC(=O)N1CCCCC1[C@](C)(O)[C@H]1CC[C@H]2[C@@H]3CC[C@H]4C[C@@H](O)CC[C@]4(C)[C@H]3CC[C@@]21C (stereo partly drawn) [CHEMBL1214310]
pIC50 Value (L. major [1]; [3]): 4.27 | Outcome (L. major [2]; [4]): Inactive

CC1=N[C@H](C)Cc2c(-c3ccccc3)ccc(O)c21 [CHEMBL1275788]
pIC50 Value (L. major [1]; [3]): 4.00 | Outcome (L. major [2]; [4]): Inactive

Cc1ccc2cc(C3CC(c4sccc4C)=NN3)c(Cl)nc2c1 (stereo not drawn) [CHEMBL2236136]
pIC50 Value (L. major [1]; [5]): 5.65 | Outcome (L. major [2]; [6]): Active

CCCC/C=C/C=C/c1nc2ccccc2n2cccc12 [CHEMBL3260214]
pIC50 Value (L. major [1]; [5]): 5.43 | Outcome (L. major [2]; [6]): Active

COc1cc(/C=N/NC(=O)c2ccccc2OC)cc(OC)c1 [CHEMBL2382053]
pIC50 Value (L. major [1]; [3]): 4.27 | Outcome (L. major [2]; [4]): Inactive

O=C(CCCl)N1c2ccccc2Oc2ccccc21 [CHEMBL3759988]
pIC50 Value (L. major [1]; [3]): 4.41 | Outcome (L. major [2]; [4]): Inactive

COc1cc(OC)c2c(C)[n+](-c3cccc4ccccc34)c(C)cc2c1.F[B-](F)(F)F [CHEMBL479641]
pIC50 Value (L. major [1]; [5]): 5.79 | Outcome (L. major [2]; [6]): Active

CCCCCCNc1ccc(Nc2c3ccc(N(C)C)cc3nc3cc(N(C)C)ccc23)cc1 [CHEMBL86823]
pIC50 Value (L. major [1]; [5]): 6.80 | Outcome (L. major [2]; [6]): Active

COc1ccc(/N=C/c2cn(C)c3ccccc23)cc1 [CHEMBL2071557]
pIC50 Value (L. major [1]; [5]): 5.46 | Outcome (L. major [2]; [6]): Active

COc1ccc(-c2nnc3sc(-c4ccc(F)cc4)nn23)cc1 [CHEMBL1256800]
pIC50 Value (L. major [1]; [3]): 4.00 | Outcome (L. major [2]; [4]): Inactive

CC(=O)C1=C(CNc2ccc(C(=O)/C=C/c3ccc(Cl)cc3)cc2)N(C)C(=O)NC1c1ccccc1 (stereo not drawn) [CHEMBL3785674]
pIC50 Value (L. major [1]; [5]): 5.97 | Outcome (L. major [2]; [6]): Active

Fc1ccc(-c2nc3ccccn3c2-c2cccnc2)cc1 [CHEMBL2151875]
pIC50 Value (L. major [1]; [3]): 4.42 | Outcome (L. major [2]; [4]): Inactive

COc1ccccc1-c1nnc(-c2ccc(C(=O)N/N=C/c3ccc(F)cc3)cc2)o1 [CHEMBL4099059]
pIC50 Value (L. major [1]; [3]): 4.85 | Outcome (L. major [2]; [4]): Inactive

CC1=N[C@H](C)Cc2c(-c3ccc(C(F)(F)F)cc3)ccc(O)c21 [CHEMBL1275619]
pIC50 Value (L. major [1]; [3]): 4.00 | Outcome (L. major [2]; [4]): Inactive

COc1cccc(/C=C/C(=O)C2=Cc3cc(Cl)ccc3OC2)c1OC [CHEMBL1095287]
pIC50 Value (L. major [1]; [5]): 5.55 | Outcome (L. major [2]; [6]): Active

COC(=O)C1=C(C)NC(C)=C(C(=O)OC(C)(C)CN(C)CCC(c2ccccc2)c2ccccc2)C1c1cccc([N+](=O)[O-])c1 (stereo not drawn) [CHEMBL250270]
pIC50 Value (L. major [1]; [3]): 4.94 | Outcome (L. major [2]; [4]): Inactive

COc1ccc(C(=O)/C=C/c2ccc(-n3ccnc3)cc2)cc1OC [CHEMBL570484]
pIC50 Value (L. major [1]; [5]): 5.61 | Outcome (L. major [2]; [6]): Active

COc1ccc2c(=O)c(C(=O)O)csc2c1 [CHEMBL1255798]
pIC50 Value (L. major [1]; [3]): 4.00 | Outcome (L. major [2]; [4]): Inactive

CC(C)(O)[C@@H]1CC[C@](C)([C@@H]2[C@@H](O)C[C@@]3(C)[C@@H]4C[C@H](O)[C@H]5C(C)(C)[C@@H](O)CC[C@@]56C[C@@]46CC[C@]23C)O1 [CHEMBL504655]
pIC50 Value (L. major [1]; [3]): 3.97 | Outcome (L. major [2]; [4]): Inactive

COc1ccc(-c2ccccc2)c2c1C(C)=N[C@H](C)C2 [CHEMBL1275787]
pIC50 Value (L. major [1]; [3]): 4.00 | Outcome (L. major [2]; [4]): Inactive

O=C(/C=C/C1=Cc2cc(Cl)ccc2OC1)c1ccccc1Cl [CHEMBL1097965]
pIC50 Value (L. major [1]; [5]): 5.91 | Outcome (L. major [2]; [6]): Active

O=[N+]([O-])c1ccc(-c2nnc(NCc3cn(Cc4ccccc4Cl)nn3)s2)o1 [CHEMBL1951525]
pIC50 Value (L. major [1]; [3]): 4.72 | Outcome (L. major [2]; [4]): Inactive

O=C(c1cccc(Cl)c1)N1CCN(c2nnc(-c3ccc([N+](=O)[O-])s3)s2)CC1 [CHEMBL458778]
pIC50 Value (L. major [1]; [3]): 4.30 | Outcome (L. major [2]; [4]): Inactive

O=[N+]([O-])c1ccc2[nH]c(-c3c[nH]c4ccccc34)nc2c1 [CHEMBL2297905]
pIC50 Value (L. major [1]; [5]): 5.65 | Outcome (L. major [2]; [6]): Active
